Blank lines part the entries; values can stand above or below the molecule they belong to.
Experiments:
Mus musculus [1] = organism: Mus musculus
Description: Percentage of compound bound to serum protein was determined

Mus musculus [2] = organism: Mus musculus; remark: listed apart in the source
Description: Maximum tolerated dose in A2780 tumor in mice after intraperitoneal administration daily for 8 days

P388 [3] = tested on: P388
Description: Increase in life span of the treated mice to those of control was determined

Mus musculus [4] = assay: Half life after intraperitoneal administration in mice at 26 uM/kg; type: functional, organism-based
P388 [5] = tested on: P388; remark: listed apart in the source
Description: Maximum tolerated dose was determined against P338 tumor in mice after intraperitoneal administration daily for 7 days

Mus musculus [6] = organism: Mus musculus; assay: Log cell kill for A2780 tumor in mice; type: functional
Mus musculus [7] = assay: Mean-residence time was determined for compound after intraperitoneal administration in mice at 26 uM/kg; type: functional, organism-based
Mus musculus [8] = assay: Area under curve was determined for compound after intraperitoneal administration in mice at 26 uM/kg; type: functional, organism-based
[9] = Cmax in mice at 26 umol/kg i.p. administration; type: ADME, organism-based; parameters: dose 26 umol/kg, route intraperitoneal; details: mouse, in vivo, ip
Mus musculus [10] = assay: Mean-residence time was determined for compound after intraperitoneal administration in mice at 18 uM/kg; type: functional, organism-based
Mus musculus [11] = assay: Microsomal stability was determined in mouse liver microsomes after intraperitoneal administration in mice at 18 uM/kg; type: functional
Mus musculus [12] = assay: Area under curve was determined for compound after intraperitoneal administration in mice at 18 uM/kg; type: functional, organism-based
Mus musculus [13] = assay: Half life after intraperitoneal administration in mice at 18 uM/kg; type: functional, organism-based
Mus musculus [14] = assay: Tmax in mice at 18 uM/kg i.p. administration; type: functional, organism-based
[15] = Cmax in mice at 18 umol/kg i.p. administration; type: ADME, organism-based; parameters: dose 18 umol/kg, route intraperitoneal; details: mouse, in vivo, ip
[16] = target: Cyclin-dependent kinase 2/cyclin E (Homo sapiens, UniProt P24941)
Mus musculus [17] = assay: Half life after intravenous administration in mice at 23 uM/kg; type: functional, organism-based
Mus musculus [18] = assay: Tmax in mice at 23 uM/kg i.v. administration; type: functional, organism-based
Mus musculus [19] = assay: Microsomal stability was determined in mouse liver microsomes after intravenous administration in mice at 23 uM/kg; type: functional
in vivo = details: mouse, iv, 23 umol/kg
Description: Cmax in mice at 23 umol/kg i.v. administration

Mus musculus [20] = organism: Mus musculus; assay: Log cell kill for A2780 tumor in mice; […]; type: functional
Mus musculus [21] = assay: Mean-residence time was determined for compound intravenous administration in mice at 23 uM/kg; type: functional, organism-based
Mus musculus [22] = assay: Half life after intraperitoneal administration in mice at 25 uM/kg; type: functional, organism-based
Mus musculus [23] = assay: Mean-residence time was determined for compound after intraperitoneal administration in mice at 25 uM/kg; type: functional, organism-based
Mus musculus [24] = assay: Area under curve was determined for compound after intraperitoneal administration in mice at 25 uM/kg; type: functional, organism-based
Mus musculus [25] = assay: Tmax in mice at 25 uM/kg i.p. administration; type: functional, organism-based
[26] = Cmax in mice at 24 umol/kg i.p. administration; type: ADME, organism-based; parameters: dose 24 umol/kg, route intraperitoneal; details: mouse, in vivo, ip
[27] = Cmax in mice at 25 umol/kg i.p. administration; type: ADME, organism-based; parameters: dose 25 umol/kg, route intraperitoneal; details: mouse, in vivo, ip

SMILES: CC(C)(C)OC(=O)N1CCC(C(=O)Nc2ncc(SCc3ncc(C(C)(C)C)o3)s2)CC1
Binding (Mus musculus [1]): 99%

SMILES: CC(C)(C)c1cnc(CSc2cnc(NC(=O)C3CCN(S(C)(=O)=O)CC3)s2)o1
Binding (Mus musculus [1]): 84%

SMILES: CC(C)(C)c1cnc(CSc2cnc(NC(=O)C3CCCNC3)s2)o1 (configuration not stated)
Binding (Mus musculus [1]): 82%
MTD (Mus musculus [2]): 22 mg/kg
Survival (P388 [3]): 152%
T1/2 (Mus musculus [4]): 2.2 h
MTD (P388 [5]): 20 mg/kg
LCK (Mus musculus [6]): 1.6
MRT (Mus musculus [7]): 3.5 h
AUC (Mus musculus [8]): 4600 ng·h/mL
Cmax [9]: 3500 nM

SMILES: CC(C)(C)c1cnc(CSc2cnc(NC(=O)Cc3ccc(CNC(CO)CO)cc3)s2)o1
Binding (Mus musculus [1]): 79%
MTD (Mus musculus [2]): 26 mg/kg
MRT (Mus musculus [10]): 2.9 h
Activity (Mus musculus [11]): 0.22 nM min-1 (mg of protein)-1
Survival (P388 [3]): 140%
MTD (P388 [5]): 32 mg/kg
LCK (Mus musculus [6]): 3.3
AUC (Mus musculus [12]): 1320 ng·h/mL
T1/2 (Mus musculus [13]): 1.8 h
Tmax (Mus musculus [14]): 1 h
Cmax [15]: 800 nM

SMILES: CC(C)(C)c1cnc(CSc2cnc(NC(=O)[C@H]3CC[C@H](N)CC3)s2)o1
Binding (Mus musculus [1]): 86%

IC50 [16]: 5 µM
SMILES: CC(=O)Nc1ncc(SCc2ncc(C(C)(C)C)o2)s1
Binding (Mus musculus [1]): 83%

IC50 [16]: 3 µM
SMILES: CC(C)(C)c1cnc(CSc2cnc(NC(=O)Cc3ccccc3)s2)o1

SMILES: CC(C)(C)c1cnc(CSc2cnc(NC(=O)[C@H]3CC[C@@H](N)CC3)s2)o1
T1/2 (Mus musculus [17]): 2.2 h
Binding (Mus musculus [1]): 68%
MTD (Mus musculus [2]): 8 mg/kg
Tmax (Mus musculus [18]): 6 min
Survival (P388 [3]): 179%
Activity (Mus musculus [19]): 0.07 nM min-1 (mg of protein)-1
MTD (P388 [5]): 8 mg/kg
AUC (Mus musculus [12]): 4660 ng·h/mL
Cmax (in vivo): 13600 nM
LCK (Mus musculus [20]): 1.7
MRT (Mus musculus [21]): 2.2 h

SMILES: CC(C)(C)c1cnc(CSc2cnc(NC(=O)C3CCN(CCO)CC3)s2)o1
Binding (Mus musculus [1]): 75%
T1/2 (Mus musculus [22]): 1.9 h
MRT (Mus musculus [23]): 2.4 h
AUC (Mus musculus [24]): 764 ng·h/mL
Survival (P388 [3]): 140%
MTD (P388 [5]): 22.5 mg/kg
Tmax (Mus musculus [25]): 0.5 h
Cmax [26]: 1100 nM

Cmax [27]: 1100 nM
SMILES: CN1CCC(C(=O)Nc2ncc(SCc3ncc(C(C)(C)C)o3)s2)CC1
Binding (Mus musculus [1]): 75%
T1/2 (Mus musculus [22]): 0.7 h
MRT (Mus musculus [23]): 1.1 h
AUC (Mus musculus [24]): 473 ng·h/mL
Tmax (Mus musculus [25]): 0.5 h

IC50 [16]: 300 µM
SMILES: CC(C)(C)c1cnc(CSc2cnc(NC(=O)C3CCCCC3)s2)o1

Reference: ChEMBL document CHEMBL1149325 (J Med Chem, 2004)
